Laboratory results: patent publication US20220089600A1, “TGFß INHIBITOR AND PRODRUGS” (FUNDACIÓ INSTITUT DE RECERCA BIOMÈDICA (IRB BARCELONA), priority 2018, published 2022)

Assays:
[1] = tested on: MTO129 established liver metastases; assay: Overt metastatic disease model, alone or with anti-PD-1; conditions: monotherapy
From the text: For this purpose, the protocol of mouse inoculation with MTO129 described for FIG. 13 was used, but here treatment with compounds started at day 16 post-inoculation. At this time point mice had developed large metastases. Treatments finished at day 24. […] In these experiments, the vast majority (>90%) of control mice die of liver metastatic disease.
Mouse tumor organoids (MTO129) were developed as indicated in example 3. C57BL/6J mice were purchased from Janvier at 6 weeks of age and injected at 7-8 weeks. For transplantation of MTO129 into the liver, cells were trypsinized (digesting the matrix and disaggregating organoids into single cells), counted and 300,000 cells were injected in HBSS (Hank's Balanced Salt Solution, Lonza) into the spleen, thus delivering the cells directly into the portal vein that connects the intestine to the liver. […] Treatment with compounds occurred by gavage (tube feeding) and mice were treated twice a day with 150 μl of compound suspension in vehicle. […] Control mice were given gavage vehicle and IgG2a isotype control antibody.
At this time point, mice had developed large liver metastases. Treatments finished at day 24. […] In these experiments, the vast majority (>90%) of control mice die of liver metastatic disease.

ALK5 (TGFBR1) = target: T1, ALK5 (TGFBR1) (Homo sapiens, UniProt P36897); assay: KINOMEscan affinity, competition binding
T1 sequence (P36897 34-503): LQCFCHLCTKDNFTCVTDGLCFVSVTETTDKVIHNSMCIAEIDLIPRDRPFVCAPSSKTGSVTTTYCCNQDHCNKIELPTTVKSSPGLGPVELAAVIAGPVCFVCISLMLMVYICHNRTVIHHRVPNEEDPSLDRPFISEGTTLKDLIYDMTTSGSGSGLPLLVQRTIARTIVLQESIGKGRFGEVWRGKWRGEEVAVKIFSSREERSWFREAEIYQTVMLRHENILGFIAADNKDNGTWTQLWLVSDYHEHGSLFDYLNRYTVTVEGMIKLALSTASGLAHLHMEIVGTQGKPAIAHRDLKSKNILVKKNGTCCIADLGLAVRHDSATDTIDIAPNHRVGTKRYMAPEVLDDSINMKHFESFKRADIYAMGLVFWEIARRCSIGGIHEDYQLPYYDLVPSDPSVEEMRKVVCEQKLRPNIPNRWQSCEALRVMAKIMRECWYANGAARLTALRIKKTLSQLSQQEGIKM
Experimental: (§1) The affinity, measured as Kd (dissociation constants), of the compound of formula I for the ALK family was determined by using the KINOMEscan™ Technology from Eurofins. Selectivity in front of ALK1 (ACVRL1), ALK2 (ACVR1), ALK3 (BMPR1A), ALK4 (ACVR1B), ALK6 (BMPR1B), ACVR2B and TGFβR2 was determined.
(§2) The assay is performed by combining three components: DNA-tagged kinase; immobilized ligand; and a test compound. The ability of the test compound to compete with the immobilized ligand is measured via quantitative PCR of the DNA tag.
(§3) Test compounds were prepared as 111× stocks in 100% DMSO. Kds were determined using an 11-point 3-fold compound dilution series with three DMSO control points being the top concentration 30 μM. […] The compounds were then diluted directly into the assays such that the final concentration of DMSO was 0.9%. All reactions performed in polypropylene 384-well plate. Each was a final volume of 0.02 ml. […] The beads were then re-suspended in elution buffer (1×PBS, 0.05% Tween 20, 0.5 μM non-biotinylated affinity ligand) and incubated at room temperature with shaking for 30 minutes. The kinase concentration in the eluates was measured by qPCR.
(§4) Dissociation constants (Kds) for test compound-kinase interactions are calculated by measuring the amount of kinase captured on the solid support as a function of the test compound concentration.

ALK4 (ACVR1B) = target: T2, ALK4 (ACVR1B) (Homo sapiens, UniProt P36896); assay: KINOMEscan affinity, competition binding
T2 construct: purchased Eurofins (KINOMEscan service)
Experimental: as §1, §2, §3, §4

MTO129 liver metastases = assay: Liver metastasis formation assay versus compounds 338 and 337 (FIG. 17); type: in vivo, mouse; conditions: FIG. 17, 1× dose, day 2 to 18, count at 21 days
Experimental: In another experiment (FIG. 17), we compared the in vivo therapeutic activity of compound of formula I to the related compound 338 and compound 337. […] All mice were treated from day 2 to day 18 post inoculation of tumor cells. Number of liver metastases were counted at 21 days after MTO inoculation.

T2 sequence (P36896 24-505): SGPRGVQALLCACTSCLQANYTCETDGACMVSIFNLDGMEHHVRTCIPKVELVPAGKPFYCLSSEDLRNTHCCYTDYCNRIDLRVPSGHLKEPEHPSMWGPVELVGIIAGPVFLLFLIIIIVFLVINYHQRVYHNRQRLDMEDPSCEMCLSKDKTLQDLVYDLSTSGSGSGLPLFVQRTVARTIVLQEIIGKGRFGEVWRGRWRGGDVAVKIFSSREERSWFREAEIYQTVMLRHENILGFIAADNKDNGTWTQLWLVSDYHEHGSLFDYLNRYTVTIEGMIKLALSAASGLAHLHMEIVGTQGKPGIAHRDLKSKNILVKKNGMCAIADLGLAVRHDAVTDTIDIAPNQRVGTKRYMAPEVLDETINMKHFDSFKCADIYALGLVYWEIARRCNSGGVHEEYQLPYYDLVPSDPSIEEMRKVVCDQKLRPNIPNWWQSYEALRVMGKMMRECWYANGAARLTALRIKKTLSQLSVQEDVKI

In the case of `Cc1cccc(-c2nn3c(c2-c2ccnc4ccc(O)cc24)CCC3)n1` [compound of formula I, 4-(2-(6-methylpyridin-2-yl)-5,6-dihydro-4H-pyrrolo[1,2-b]pyrazol-3-yl)quinolin-6-ol], the “toxicity screens including genotoxicity” value (Genotoxicity screens) is reported as “cleared”, the “efficacy at reducing the number of liver metastasis compared to galunisertib” value ([1]; FIG. 14, 1× equimolar doses) is reported as “improved efficacy” and the “survival rates compared to galunisertib” value ([1]; FIG. 15, 1× equimolar doses) is reported as “higher survival rates”. The “Selectivity against ALK5” value (ALK5 (TGFBR1); ALK5 versus ALK5) was 1, the Kd (ALK5 (TGFBR1); KINOMEscan) was 20 nM and the “ALK5 binding affinity, times higher than Galunisertib” value (ALK5 (TGFBR1); versus published galunisertib data) was 8.6 times. The Selectivity improvement (ALK4 (ACVR1B); (I) versus Galunisertib) was 1.4, the “Selectivity against ALK5” value (ALK4 (ACVR1B); ALK4 versus ALK5) was 0.7 and the “potency to block the formation of metastasis compared to compound 338 and compound 337” value (MTO129 liver metastases) was “enhanced potency”.
